According to ChEMBL document CHEMBL1201862, “PubChem BioAssay data set” (2004):
Calls of active or inactive are those of the source.

Key:
Aspartyl aminopeptidase = Aspartyl aminopeptidase (Plasmodium falciparum 3D7, UniProt Q8I2J3)
Procathepsin L = Procathepsin L (Homo sapiens, UniProt P07711)
[1] = Luminescence Cell-Based Dose Retest to Confirm Inhibitors of Cancer Stem Cells. [Related pubchem assays (depositor defined):AID2717, AID2721]; format: functional; details: Homo sapiens
[2] = alpha-synuclein stem-loop luciferase translation blockers – H4 neuroglioma cells, luminescence, confirmation (AID 1988); format: functional, cell-based
[3] = DRD fibroblast viability loss – cell-based, non-viral oncogenic, luminescence, dose response (AID 1934); format: functional; details: Homo sapiens
BJ [4] = assay: cells; format: functional, cell-based; details: Homo sapiens
BJ [5] = assay: BJ-TERT-LT-ST fibroblast viability loss – cell-based, RAS-independent, luminescence, dose response (AID 1935); format: functional; details: Homo sapiens;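 further: BJ fibroblasts immortalized with TERT plus LT and ST oncogenes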
[6] = Luminescence Cell-Based Dose Response HTS to Identify Inhibitors of 5'UTR Stem-Loop Driven Prion Protein mRNA Translation in H4 Neuroglioblastoma Cells. [Related pubchem assays: 1827 (Project Summary), 1813 (Primary HTS)]; format: functional
BJ [7] = assay: BJ-TERT fibroblast viability loss – cell-based, RAS-independent, luminescence, dose response (AID 1933); format: functional; details: Homo sapiens
[8] = luciferase reporter signal suppression in cells – H4 neuroglioma cells, luminescence, dose response (AID 1990); format: functional, cell-based
BJ [9] = assay: growth inhibition of engineered Ras-driven BJ cells – cell-based, alamar blue fluorescence, cherrypicked samples, dose response (AID 2631); format: functional; details: Homo sapiens;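 further: confirmatory dose-response assay in RAS-dependent BJ fibroblasts engineered with TERT, LT and ST, with cytotoxicity read by fluorescence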
[10] = Luminescence-based dose response cell-based high throughput screening assay for cytotoxic compounds using the IEC-6 intestinal epithelial cell line. [Related pubchem assays: 1858 (Summary AID.), 1825 (Counterscreen.), 1907 (Confirmation screen.)]; format: functional
[11] = luciferase reporter signal reduction – luminescence, H4-C neuroglioblastoma cells, dose response (AID 2458); format: functional, cell-based;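 further: H4 neuroglioblastoma cells stably carrying a luciferase reporter gene fusion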
[12] = alpha-synuclein stem-loop translation blockers – luminescence, H4 neuroglioblastoma cells, dose confirmation, confirmation (AID 2454); format: functional, cell-based;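 further: H4 neuroglioblastoma cells carrying an alpha-synuclein 5'UTR luciferase reporter; potency for inhibition of the luciferase signal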
cells = format: functional, cell-based
[13] = A cytotoxicity screen of small molecule inhibitors of the PhoP region in Salmonella typhi identified in the primary screen. [Related pubchem assays: 1850, 1864, 1985 ]; format: functional
Genome polyprotein = Genome polyprotein (dengue virus type 2, UniProt P29990); assay: flavivirus cap methylation enzyme inhibition – biochemical, confirmation dose response, primary screen (AID 588689); format: functional
[14] = molecular target: Epstein-Barr nuclear antigen 1 (Epstein-Barr virus (strain B95-8) (HHV-4) (Human herpesvirus 4), UniProt P03211); assay: inhibition of EBV nuclear antigen 1 DNA binding – biochemical, fluorescence polarization, 1536-well, dose response (AID 2381); design: species or system human gammaherpesvirus 4;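 further: fluorescence polarization of a Cy5 DNA probe bound by EBNA-1 protein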
[15] = molecular target: Lytic switch protein BZLF1 (Epstein-Barr virus (strain B95-8) (HHV-4) (Human herpesvirus 4), UniProt P03206); assay: inhibition of BZLF1 ZTA DNA binding – biochemical, fluorescence polarization, Epstein-Barr virus, 1536-well, counter-screen for EBNA-1 inhibitor project, dose response (AID 2377); design: species or system human gammaherpesvirus 4;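 further: fluorescence polarization of Cy5-labelled ZRE DNA probe bound by purified Zta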
[16] = fluconazole-exposed Candida albicans growth modulators – fluorescence, retest, confirmation (AID 2467); format: functional, cell-based
[17] = NIH-3T3 fibroblast cytotoxicity, dose response, cytotoxicity control, cell-based, fluorescence, Alamar Blue, secondary assay (AID 2327); format: functional;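 further: NIH-3T3 mouse fibroblasts cultured with fluconazole at 8 µg/mL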
[18] = molecular target: T1, Polyadenylate-binding protein 1 (Homo sapiens, UniProt P11940); assay: MLLE binding blockers, Cy5 peptide tracer – biochemical, fluorescence polarization, Cy5-PAM2 peptide, secondary, miRNA deadenylation inhibitor project, dose response (AID 602260); format: functional; details: read-out: IC50_Mean
[19] = molecular target: T1, Polyadenylate-binding protein 1; assay: MLLE domain peptide-binding blockers, IC50 – biochemical, fluorescence polarization, FITC-PAM2 peptide, dose response (AID 602259); format: functional; details: read-out: IC50_Mean
[20] = molecular target: T2, RNA-binding protein pos-1 (Caenorhabditis elegans, UniProt G5EF15); assay: disruptors of C. elegans POS-1 RNA interaction – biochemical, fluorescence polarization, dose response (AID 1964);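 further: purified POS-1 fused to maltose binding protein made in E. coli; potency of compounds blocking POS-1 binding to fluorescent RNA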
T2 sequence (G5EF15 whole entry): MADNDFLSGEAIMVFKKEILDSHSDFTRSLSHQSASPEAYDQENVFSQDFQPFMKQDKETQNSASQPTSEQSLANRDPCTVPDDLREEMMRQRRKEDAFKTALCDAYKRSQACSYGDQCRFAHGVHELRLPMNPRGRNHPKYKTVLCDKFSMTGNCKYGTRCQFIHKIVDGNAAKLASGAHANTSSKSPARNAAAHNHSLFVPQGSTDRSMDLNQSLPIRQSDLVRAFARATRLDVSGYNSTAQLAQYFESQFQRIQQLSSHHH

Large T antigen = Large T antigen (Simian virus 40, UniProt P03070); format: functional, Betapolyomavirus macacae;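 further: Confirmatory-stage PubChem screen for compounds that inhibit SV40 T antigen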
[21] = molecular target: T3, Mannose-6-phosphate isomerase (Homo sapiens, UniProt P34949); assay: MPI enzyme activity inhibition – biochemical, fluorescence intensity, coupled assay, primary screen (AID 1209)
T3 sequence (P34949 whole entry): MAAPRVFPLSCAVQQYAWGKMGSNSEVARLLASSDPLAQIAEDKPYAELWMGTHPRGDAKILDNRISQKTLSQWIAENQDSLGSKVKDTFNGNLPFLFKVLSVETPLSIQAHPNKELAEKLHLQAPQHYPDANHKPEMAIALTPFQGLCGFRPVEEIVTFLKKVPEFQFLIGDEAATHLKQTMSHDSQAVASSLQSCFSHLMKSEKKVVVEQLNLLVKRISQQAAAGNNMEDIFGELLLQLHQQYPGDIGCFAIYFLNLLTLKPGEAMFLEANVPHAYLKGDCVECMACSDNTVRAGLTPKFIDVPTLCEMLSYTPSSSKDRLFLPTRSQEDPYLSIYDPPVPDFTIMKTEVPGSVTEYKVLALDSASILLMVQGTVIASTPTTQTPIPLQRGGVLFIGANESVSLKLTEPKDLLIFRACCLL

[22] = molecular target: T3, Mannose-6-phosphate isomerase; assay: MPI inhibition at elevated mannose 6-phosphate – biochemical, fluorescence intensity, high mannose 6-phosphate, primary screen (AID 1220)
Protein RecA = molecular target: T4, Protein RecA (Mycobacterium tuberculosis, UniProt P9WHJ3); assay: Fluorescence Cell-Free Homogeneous Dose Retest to Identify Inhibitors of RecA-Intein Splicing Activity. [Related pubchem assays (depositor defined):AID2097, AID2223, AID489010, AID492950]; format: functional
T4 sequence (P9WHJ3 whole entry): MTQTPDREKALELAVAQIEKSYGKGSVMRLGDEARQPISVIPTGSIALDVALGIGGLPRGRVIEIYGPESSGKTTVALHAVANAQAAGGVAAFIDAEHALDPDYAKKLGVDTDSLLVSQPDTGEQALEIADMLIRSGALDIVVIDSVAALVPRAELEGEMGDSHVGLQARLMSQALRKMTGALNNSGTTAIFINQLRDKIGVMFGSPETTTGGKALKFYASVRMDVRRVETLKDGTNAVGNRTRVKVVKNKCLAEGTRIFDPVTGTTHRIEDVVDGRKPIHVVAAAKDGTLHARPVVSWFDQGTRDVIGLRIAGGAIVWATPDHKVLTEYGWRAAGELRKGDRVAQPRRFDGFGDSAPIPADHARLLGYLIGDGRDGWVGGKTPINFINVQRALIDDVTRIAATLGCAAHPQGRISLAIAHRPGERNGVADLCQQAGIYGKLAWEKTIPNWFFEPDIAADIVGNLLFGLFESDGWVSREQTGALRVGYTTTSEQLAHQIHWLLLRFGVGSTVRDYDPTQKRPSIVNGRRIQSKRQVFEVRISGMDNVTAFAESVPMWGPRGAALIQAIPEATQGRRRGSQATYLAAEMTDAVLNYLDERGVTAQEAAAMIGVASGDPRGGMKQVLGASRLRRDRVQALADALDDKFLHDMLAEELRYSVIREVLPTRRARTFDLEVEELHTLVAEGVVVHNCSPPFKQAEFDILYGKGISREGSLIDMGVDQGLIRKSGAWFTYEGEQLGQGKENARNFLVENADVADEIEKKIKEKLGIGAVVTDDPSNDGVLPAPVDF

[23] = molecular target: T5, Replicative DNA helicase DnaB (Mycobacterium tuberculosis, UniProt P9WMR3); assay: DnaB intein splicing inhibitors, dose response, biochemical, cell-free fluorescence (AID 449749); format: functional
T5 sequence (P9WMR3 whole entry): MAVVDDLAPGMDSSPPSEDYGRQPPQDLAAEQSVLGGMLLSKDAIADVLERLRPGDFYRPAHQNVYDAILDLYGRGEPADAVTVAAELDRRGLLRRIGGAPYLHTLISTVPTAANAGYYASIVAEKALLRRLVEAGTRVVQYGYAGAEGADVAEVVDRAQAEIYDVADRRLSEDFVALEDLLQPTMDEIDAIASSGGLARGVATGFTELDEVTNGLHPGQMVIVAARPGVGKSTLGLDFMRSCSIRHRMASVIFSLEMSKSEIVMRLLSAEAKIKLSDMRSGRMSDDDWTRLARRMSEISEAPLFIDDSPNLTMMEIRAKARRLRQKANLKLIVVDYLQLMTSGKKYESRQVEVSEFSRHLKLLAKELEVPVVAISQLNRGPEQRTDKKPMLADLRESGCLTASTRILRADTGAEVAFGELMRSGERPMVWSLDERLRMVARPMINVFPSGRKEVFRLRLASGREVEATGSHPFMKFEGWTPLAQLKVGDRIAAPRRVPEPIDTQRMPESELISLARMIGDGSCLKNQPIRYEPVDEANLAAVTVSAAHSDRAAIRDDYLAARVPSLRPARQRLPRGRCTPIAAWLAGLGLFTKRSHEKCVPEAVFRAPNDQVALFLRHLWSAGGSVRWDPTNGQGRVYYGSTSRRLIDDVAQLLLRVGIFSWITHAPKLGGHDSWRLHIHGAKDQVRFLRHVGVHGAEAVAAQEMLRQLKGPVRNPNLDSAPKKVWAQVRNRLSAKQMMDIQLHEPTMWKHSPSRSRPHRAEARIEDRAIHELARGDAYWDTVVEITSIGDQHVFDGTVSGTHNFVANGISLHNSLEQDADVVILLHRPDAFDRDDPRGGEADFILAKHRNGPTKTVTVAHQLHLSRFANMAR

T1 sequence (P11940 whole entry, the tested form may be a part): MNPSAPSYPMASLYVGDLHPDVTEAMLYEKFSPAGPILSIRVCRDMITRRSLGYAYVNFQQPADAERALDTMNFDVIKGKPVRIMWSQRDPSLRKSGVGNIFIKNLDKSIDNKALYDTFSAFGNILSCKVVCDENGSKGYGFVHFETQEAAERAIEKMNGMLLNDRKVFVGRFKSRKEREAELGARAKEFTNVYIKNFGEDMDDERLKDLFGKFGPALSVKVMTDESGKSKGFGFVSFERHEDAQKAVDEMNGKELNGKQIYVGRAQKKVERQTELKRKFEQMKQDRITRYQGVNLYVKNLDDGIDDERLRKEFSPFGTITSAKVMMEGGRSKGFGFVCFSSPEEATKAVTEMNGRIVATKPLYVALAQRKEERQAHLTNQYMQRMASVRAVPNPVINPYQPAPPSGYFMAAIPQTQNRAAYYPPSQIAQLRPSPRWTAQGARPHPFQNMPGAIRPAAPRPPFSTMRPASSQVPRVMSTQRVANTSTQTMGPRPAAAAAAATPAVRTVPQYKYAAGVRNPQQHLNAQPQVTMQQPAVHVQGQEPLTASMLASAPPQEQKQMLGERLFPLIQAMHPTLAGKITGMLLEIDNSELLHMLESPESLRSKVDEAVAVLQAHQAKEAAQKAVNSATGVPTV
Chain of Procathepsin L (P07711 whole entry): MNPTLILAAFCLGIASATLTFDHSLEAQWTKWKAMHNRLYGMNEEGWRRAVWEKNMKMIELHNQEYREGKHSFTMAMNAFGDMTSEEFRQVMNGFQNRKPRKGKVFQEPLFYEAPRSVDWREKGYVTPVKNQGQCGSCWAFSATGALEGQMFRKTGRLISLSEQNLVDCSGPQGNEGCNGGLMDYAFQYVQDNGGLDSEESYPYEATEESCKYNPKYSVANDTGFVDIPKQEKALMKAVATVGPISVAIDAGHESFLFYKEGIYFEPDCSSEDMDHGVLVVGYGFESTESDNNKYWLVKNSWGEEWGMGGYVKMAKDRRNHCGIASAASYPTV
Chain of Epstein-Barr nuclear antigen 1 (P03211 whole entry): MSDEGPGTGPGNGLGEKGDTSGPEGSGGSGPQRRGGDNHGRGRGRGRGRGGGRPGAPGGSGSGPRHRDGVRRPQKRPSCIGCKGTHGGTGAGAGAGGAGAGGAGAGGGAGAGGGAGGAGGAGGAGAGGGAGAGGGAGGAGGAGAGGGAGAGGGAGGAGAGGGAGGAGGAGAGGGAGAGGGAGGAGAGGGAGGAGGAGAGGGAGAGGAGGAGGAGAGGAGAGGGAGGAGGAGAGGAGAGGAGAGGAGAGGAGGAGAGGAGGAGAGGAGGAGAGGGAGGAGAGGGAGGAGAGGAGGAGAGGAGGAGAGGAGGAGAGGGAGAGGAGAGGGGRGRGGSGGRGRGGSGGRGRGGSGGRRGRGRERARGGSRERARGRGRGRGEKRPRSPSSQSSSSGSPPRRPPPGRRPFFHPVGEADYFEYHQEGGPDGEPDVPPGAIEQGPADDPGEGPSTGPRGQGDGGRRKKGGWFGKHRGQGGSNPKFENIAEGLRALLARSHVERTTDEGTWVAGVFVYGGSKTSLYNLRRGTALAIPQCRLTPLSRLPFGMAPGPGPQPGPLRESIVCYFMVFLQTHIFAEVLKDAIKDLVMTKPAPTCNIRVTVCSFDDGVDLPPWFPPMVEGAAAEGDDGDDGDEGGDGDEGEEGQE
Chain of Aspartyl aminopeptidase (Q8I2J3 whole entry): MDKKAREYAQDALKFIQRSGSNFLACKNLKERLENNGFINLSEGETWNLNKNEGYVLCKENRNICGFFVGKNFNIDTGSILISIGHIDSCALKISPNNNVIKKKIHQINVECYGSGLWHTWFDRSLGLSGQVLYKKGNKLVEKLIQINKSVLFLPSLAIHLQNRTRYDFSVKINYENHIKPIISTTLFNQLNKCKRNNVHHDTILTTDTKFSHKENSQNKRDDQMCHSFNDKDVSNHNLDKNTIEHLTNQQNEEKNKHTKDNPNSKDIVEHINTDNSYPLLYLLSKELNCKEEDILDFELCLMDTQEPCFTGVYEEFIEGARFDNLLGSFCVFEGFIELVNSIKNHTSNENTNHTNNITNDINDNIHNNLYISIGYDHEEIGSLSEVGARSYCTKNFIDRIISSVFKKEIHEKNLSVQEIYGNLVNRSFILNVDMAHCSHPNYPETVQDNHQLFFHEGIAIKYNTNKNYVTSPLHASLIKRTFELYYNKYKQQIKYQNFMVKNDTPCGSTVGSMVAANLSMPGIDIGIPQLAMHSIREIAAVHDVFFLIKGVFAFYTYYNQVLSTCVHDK
Chain of Lytic switch protein BZLF1 (P03206 whole entry): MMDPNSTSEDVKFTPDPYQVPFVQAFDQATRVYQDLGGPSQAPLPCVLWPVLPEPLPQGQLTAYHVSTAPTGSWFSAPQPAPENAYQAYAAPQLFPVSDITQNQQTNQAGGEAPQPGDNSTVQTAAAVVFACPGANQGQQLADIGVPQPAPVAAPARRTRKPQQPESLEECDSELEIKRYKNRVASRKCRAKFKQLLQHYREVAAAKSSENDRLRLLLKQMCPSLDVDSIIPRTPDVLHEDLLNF
Chain of Genome polyprotein (P29990 2492-3391 limits assumed): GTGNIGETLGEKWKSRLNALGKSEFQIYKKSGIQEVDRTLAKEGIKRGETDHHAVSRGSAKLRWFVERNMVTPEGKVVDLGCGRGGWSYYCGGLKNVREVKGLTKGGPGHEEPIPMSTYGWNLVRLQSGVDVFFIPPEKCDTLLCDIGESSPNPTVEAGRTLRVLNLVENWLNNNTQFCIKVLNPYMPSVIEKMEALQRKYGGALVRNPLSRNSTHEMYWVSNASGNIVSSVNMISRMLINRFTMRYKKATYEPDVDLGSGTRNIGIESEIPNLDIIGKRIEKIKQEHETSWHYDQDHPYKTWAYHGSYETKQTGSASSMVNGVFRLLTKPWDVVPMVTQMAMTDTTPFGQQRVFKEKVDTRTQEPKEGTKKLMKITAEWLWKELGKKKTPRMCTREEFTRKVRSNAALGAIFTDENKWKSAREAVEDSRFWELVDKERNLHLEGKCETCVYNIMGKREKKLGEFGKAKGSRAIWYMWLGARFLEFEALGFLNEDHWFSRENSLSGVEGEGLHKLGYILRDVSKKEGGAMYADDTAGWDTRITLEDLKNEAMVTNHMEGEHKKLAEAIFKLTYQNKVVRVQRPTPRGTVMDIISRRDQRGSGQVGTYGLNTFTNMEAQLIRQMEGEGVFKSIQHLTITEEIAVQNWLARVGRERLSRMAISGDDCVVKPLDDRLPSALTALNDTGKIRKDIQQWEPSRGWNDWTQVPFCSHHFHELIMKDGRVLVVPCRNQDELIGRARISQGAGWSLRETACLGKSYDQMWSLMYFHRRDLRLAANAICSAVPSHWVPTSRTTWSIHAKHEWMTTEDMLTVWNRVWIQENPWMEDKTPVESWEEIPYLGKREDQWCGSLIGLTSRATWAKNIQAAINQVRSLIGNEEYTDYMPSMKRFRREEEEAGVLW
Chain of Large T antigen (P03070 whole entry): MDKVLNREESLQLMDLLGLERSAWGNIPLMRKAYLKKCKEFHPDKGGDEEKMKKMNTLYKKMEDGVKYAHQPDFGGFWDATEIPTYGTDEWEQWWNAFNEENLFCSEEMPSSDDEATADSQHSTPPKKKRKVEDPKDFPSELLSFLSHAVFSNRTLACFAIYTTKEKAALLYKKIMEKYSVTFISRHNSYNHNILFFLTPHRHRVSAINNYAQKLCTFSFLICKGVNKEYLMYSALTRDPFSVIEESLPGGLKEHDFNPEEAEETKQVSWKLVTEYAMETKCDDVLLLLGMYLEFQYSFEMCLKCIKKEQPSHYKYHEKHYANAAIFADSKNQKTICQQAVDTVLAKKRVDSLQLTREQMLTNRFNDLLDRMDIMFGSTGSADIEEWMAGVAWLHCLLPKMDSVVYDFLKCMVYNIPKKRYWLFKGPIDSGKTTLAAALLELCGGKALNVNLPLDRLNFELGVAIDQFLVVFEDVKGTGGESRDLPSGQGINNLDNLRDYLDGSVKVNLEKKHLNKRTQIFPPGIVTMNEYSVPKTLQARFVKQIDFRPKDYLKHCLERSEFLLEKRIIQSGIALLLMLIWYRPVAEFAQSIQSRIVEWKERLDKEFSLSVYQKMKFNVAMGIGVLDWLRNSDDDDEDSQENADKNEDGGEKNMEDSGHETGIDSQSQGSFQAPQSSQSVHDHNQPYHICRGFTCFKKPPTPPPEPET

COCC(C)NC(=O)NC1(C(F)(F)F)Oc2ccc(Cl)cc2O1 (stereo not given)
IC50 (Aspartyl aminopeptidase): 1.79 µM (active)
IC50 (Procathepsin L): > 59.6 µM (not active)
AC50 [1]: 6.69 µM (active)

O=C(NCCOc1cccnc1)c1ccc(OC2CCN(Cc3ccccn3)CC2)cc1
EC50 [2]: < 0.1 µM (active)
EC50 [3]: 3.96 µM (active)
EC50 (BJ [4]): 0.334 µM (inconclusive)
EC50 (BJ [5]): 0.543 µM (inconclusive)
EC50 [6]: 0.202 µM (inconclusive)
EC50 (BJ [7]): 78.3 µM (active)
EC50 [8]: 0.158 µM (active)
EC50 (BJ [9]): 0.254 µM (active)
IC50 [10]: 0.0533 µM (active)
EC50 [11]: 0.821 µM (active)
EC50 [12]: 0.623 µM (active)
EC50 (cells): 0.577 µM (active)

COc1cc(/C=C(/C#N)C(=O)Nc2ccccc2)c(Br)cc1OCc1ccc(C(=O)O)cc1
EC50 [13]: > 50 µM (active)
IC50 (Genome polyprotein): 66.6 µM (active)

Cc1ccccc1N(C(=O)c1snc(C(N)=O)c1N)C(C(=O)NCC1CCCO1)c1ccc(N(C)C)cc1 (stereo not given)
IC50 [14]: 13.6 µM (not active)
IC50 [15]: > 111 µM (not active)

Cc1ccc([N+](=O)[O-])cc1-c1[nH]c(-c2ccc(O)c(O)c2)nc1-c1ccccc1
EC50 [16]: > 38 µM (not active)
IC50 (Aspartyl aminopeptidase): 1.69 µM (active)
IC50 (Procathepsin L): > 59.6 µM (not active)
EC50 [17]: 57.8 µM (active)

O=C(NC(=S)Nc1ccc(S(=O)(=O)Nc2nccs2)cc1)c1cccnc1
EC50 [13]: > 50 µM (active)
IC50 [18]: > 66 µM (inactive)
IC50 [19]: > 66 µM (inactive)

CC1CCCC(C)N1S(=O)(=O)c1ccc(NC(=O)CCn2cnc3ccccc3c2=O)cc1 (stereo not given)
IC50 [14]: 16.4 µM (not active)
IC50 [15]: > 111 µM (not active)

Cc1ncc(CO)c(/C=N/NC(=O)c2cc(O)c(O)c(O)c2)c1O
EC50 [20]: 71.2 µM (active)
IC50 (Large T antigen): 3.72 µM (active)
IC50 [21]: 4.5 µM (active)

O=[N+]([O-])c1cccc(/N=C/C2=C(O)c3ccccc3CC2)c1
IC50 [22]: > 50 µM (not active)
EC50 (Protein RecA): 10.6 µM (active)
AC50 [23]: > 380 µM (inactive)
IC50 [21]: 10.3 µM (active)
